Source: US5217976A, “1,6-naphthyridone derivatives having angiotensin II antagonist activity” (Imperial Chemical Industries PLC, priority 1991, dated 1993)

How the values were obtained:
[1] = target: T1, angiotensin II (AII) receptors, cell surface membrane fraction of guinea pig adrenal gland (Cavia porcellus, UniProt Q9WV26); assay: Test A: displacement of radiolabelled AII binding to adrenal membrane fraction (in vitro); conditions: guinea pig adrenal membranes, read-out: IC50 (concentration for 50% displacement of radiolabelled AII binding)
T1 construct: from tissue; host or cells: guinea pig adrenal gland, cell surface membrane fraction
T1 sequence (Q9WV26 1-359): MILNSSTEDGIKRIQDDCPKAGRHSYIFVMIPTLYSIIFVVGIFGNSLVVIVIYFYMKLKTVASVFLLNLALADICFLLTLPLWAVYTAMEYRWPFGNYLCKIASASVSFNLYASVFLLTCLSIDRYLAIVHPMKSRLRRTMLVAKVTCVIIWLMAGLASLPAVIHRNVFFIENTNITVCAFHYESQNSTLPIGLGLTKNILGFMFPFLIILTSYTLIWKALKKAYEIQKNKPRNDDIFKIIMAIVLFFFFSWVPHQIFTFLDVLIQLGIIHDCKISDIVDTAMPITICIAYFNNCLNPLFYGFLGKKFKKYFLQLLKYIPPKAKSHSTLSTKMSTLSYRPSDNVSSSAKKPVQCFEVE
Experimental: Test A: This in vitro procedure involves the incubation of the test compound initially at a concentration of 100 micromolar (or less) in a buffered mixture containing fixed concentrations of radiolabelled AII and a cell surface membrane fraction prepared from a suitable angiotensin target tissue. In this test, the source of cell surface membranes is the guinea pig adrenal gland which is well known to responsd to AII. Interaction of the radiolabelled AII with its receptors (assessed as radiolabel bound to the particulate membrane fraction following removal of unbound radiolabel by a rapid filtration procedure such as is standard in such studies) is antagonized by compounds which also bind to the membrane receptor sites and the degree of antagonism (observed in the test as displacement of membrane-bound radioactivity) is determined readily by comparing the receptor-bound radioactivity in the presence of the test compound at the specified test concentration with a control value determined in the absence of the test compound. Using this procedure compounds showing at least 50% displacement of radiolabelled AII binding at a concentration of 10^-4 M are retested at lower concentrations to determine their potency. […]

[2] = system: angiotensin II-induced pressor responses; assay: Test C: antagonism of angiotensin II-induced pressor responses in anaesthetised or conscious rats (in vivo); conditions: iv, rat, i.v. administration
Experimental: Test C: This in vivo test involves using terminally-anaesthetised or conscious rats in which an arterial catheter has been implanted under anaesthesia for the measurement of changes in blood pressure. The AII antagonistic effects of the test compound following oral or parenteral administration, are assessed against angiotensin II-induced pressor responses. To ensure that the effect is specific, the effect of the test compound on vasopressin-induced pressor responses may also be determined in the same preparation.

- IC50 [1]: 8.84 nM
Structure (SMILES): Cc1cc2c(ccc(=O)n2Cc2ccc(-c3ccccc3-c3nnn[nH]3)cc2)c(C)n1.Cl [Example I, 5,7-dimethyl-1[(2'-(1H-tetrazol-5-yl)biphenyl-4-yl)methyl]-1,6-naphthyridin-2(1H)-one hydrochloride]
- ED50 [2]: 0.048 mg/kg
